Broadly, the IC50 is the concentration needed to halve the response being measured.

In brackets after ≈: the same amount, converted by molar mass.

The values below come from ChEMBL document CHEMBL1781934, “Syntheses and studies of amamistatin B analogs reveals that anticancer activity is relatively independent of stereochemistry, ester or amide linkage and select replacement of one of the metal chelating groups” (Bioorg Med Chem Lett, 2011).

Assay [1] relates to PC-3. The assay is described as follows: Anticancer activity against human PC3 cells after 72 hrs by crystal violet biomass reduction assay. It counts as functional, cell-based. Conditions: PC-3, 72 h.
In assay [2] the test system is MCF7. The assay is described as follows: Growth inhibition of human MCF7 cells at 20 uM after 72 hrs by crystal violet biomass reduction assay. The class given is functional. To be noted: MCF7, 72 h, read-out: GI.
The test system of assay [3] is PC-3. The assay is described as follows: Growth inhibition of human PC3 cells at 20 uM after 72 hrs by crystal violet biomass reduction assay. It counts as functional. Conditions: PC-3, 72 h, read-out: GI.
For assay [4], the system named is MCF7. Description: Anticancer activity against human MCF7 cells after 72 hrs by crystal violet biomass reduction assay. It counts as functional, cell-based. Conditions: MCF7, 72 h.
Assay [5] relates to P388. Description: Cytotoxicity against mouse P388 cells. The class given is functional, cell-based.

Take `CCCCCCC[C@H](CC(=O)N[C@H]1CCCCN(O)C1=O)OC(=O)[C@H](CCCCN(O)C=O)NC(=O)c1nc(-c2ccccc2O)oc1C`: the IC50 in assay [1] is 4 µM; in assay [4] it was 0.2 µM. For the same molecule, the inhibition of growth at 20 µM came to 94% in assay [2] and 72% in assay [3].

Take `CCCCCCC[C@@H](CC(=O)N[C@H]1CCCCN(O)C1=O)OC(=O)[C@H](CCCCN(O)C=O)NC(=O)c1nc(-c2ccccc2O)oc1C`: the IC50 in assay [1] stood at 8 µM; in assay [4], 0.32 µM. The inhibition of growth at 20 µM in assay [2] was found to be 91%; in assay [3], 62%.

As to `CCCCCCC[C@H](CC(=O)N[C@H]1CCCCN(O)C1=O)NC(=O)[C@H](CCCCN(O)C=O)NC(=O)c1nc(-c2ccccc2O)oc1C`, the IC50 in assay [1] turned out to be 9 µM; in assay [4], 0.55 µM. For the same molecule, the inhibition of growth at 20 µM in assay [2] is 96%; in assay [3], 72%.

Regarding `CCCCCCC[C@@H](CC(=O)N[C@H]1CCCCN(O)C1=O)NC(=O)[C@H](CCCCN(O)C=O)NC(=O)c1nc(-c2ccccc2O)oc1C`, the IC50 in assay [1] was 14 µM; in assay [4], 2 µM. Also, the inhibition of growth at 20 µM in assay [2] turned out to be 95%; in assay [3], 68%.

For `CCCCCCC[C@H](CC(=O)N[C@H]1CCCCN(O)C1=O)OC(=O)[C@H](CCCCN(O)C=O)NC(=O)c1coc(-c2ccccc2O)n1`, the IC50 was 3.75 µM in assay [1] and 0.45 µM in assay [4]. Besides, the inhibition of growth at 20 µM in assay [2] turned out to be 91%; in assay [3], 85%.

Take `CCCCCCC[C@@H](CC(=O)N[C@H]1CCCCN(O)C1=O)OC(=O)[C@H](CCCCN(O)C=O)NC(=O)c1coc(-c2ccccc2O)n1`: the IC50 was found to be 9 µM in assay [1] and 0.8 µM in assay [4]. The inhibition of growth at 20 µM in assay [2] turned out to be 93%; in assay [3], 60%.

Turning to `CCCCCCC[C@H](CC(=O)N[C@H]1CCCCN(O)C1=O)OC(=O)[C@H](CCCCN(O)C=O)NC(=O)[C@@H]1COC(c2ccccc2O)=N1`, the IC50 in assay [1] amounted to 3 µM; in assay [4], 0.24 µM. The inhibition of growth at 20 µM was 87% in assay [2] and 83% in assay [3].

With `CCCCCCC[C@@H](CC(=O)N[C@H]1CCCCN(O)C1=O)OC(=O)[C@H](CCCCN(O)C=O)NC(=O)[C@@H]1COC(c2ccccc2O)=N1`, the figures for the IC50 in assay [1] and in assay [4] were 3 µM and 0.5 µM, respectively. For the same molecule, the results for the inhibition of growth at 20 µM in assay [2] and in assay [3] were 89% and 79%, respectively.

For `CCCCCCC[C@H](CC(=O)N[C@H]1CCCCN(O)C1=O)OC(=O)[C@H](CCCCN(O)C=O)NC(=O)[C@H]1COC(c2ccccc2O)=N1`, the IC50 in assay [1] was 2 µM; in assay [4] it was 0.32 µM. For the same molecule, the inhibition of growth at 20 µM in assay [2] was found to be 92%; in assay [3], 90%.

For `CCCCCCC[C@@H](CC(=O)N[C@H]1CCCCN(O)C1=O)OC(=O)[C@H](CCCCN(O)C=O)NC(=O)[C@H]1COC(c2ccccc2O)=N1`, the figures for the IC50 in assay [1] and in assay [4] were 7.5 µM and 3 µM, respectively. Also, the figures for the inhibition of growth at 20 µM in assay [2] and in assay [3] were 90% and 79%, respectively.

Take `CCCCCCC[C@H](CC(=O)N[C@H]1CCCCN(O)C1=O)OC(=O)[C@H](CCCCN(O)C=O)NC(=O)c1cccc(O)c1O`: the inhibition of growth at 20 µM came to 86% in assay [2] and 40% in assay [3]. The molecule further displayed a half-inhibitory concentration (IC50) in assay [4] of 6 µM.

As to `CCCCCCC[C@@H](CC(=O)N[C@H]1CCCCN(O)C1=O)OC(=O)[C@H](CCCCN(O)C=O)NC(=O)c1cccc(O)c1O`, the IC50 amounted to 7 µM in assay [1] and 1 µM in assay [4]. Besides, the inhibition of growth at 20 µM in assay [2] was found to be 81%; in assay [3], 63%.

As for `CCCCCCC[C@H](OC(=O)[C@@H](CCCCN(O)C=O)NC(=O)c1nc(-c2ccccc2O)oc1C)C(C)(C)C(=O)N[C@H]1CCCCN(O)C1=O`, the IC50 in assay [5] stood at 0.016 µg/mL (≈ 0.0224 µM).

Molecule `CCCCCCC[C@H](OC(=O)[C@@H](CCCCN(O)C=O)NC(=O)c1nc(-c2cc(OC)ccc2O)oc1C)C(C)(C)C(=O)N[C@H]1CCCCN(O)C1=O` [AMAMISTATIN A] came in with an IC50 in assay [5] of 0.015 µg/mL (≈ 0.0201 µM).
